Data reported in patent US20240043859A1, “HERBICIDE-RESISTANT PROTEIN, AND GENE AND USE THEREOF” (QINGDAO KINGAGROOT CHEMICAL COMPOUND CO., LTD., priority 2020, published 2024).
Entries after “also recorded” stand apart in the source; their conditions may differ.

How the values were obtained:
Arabidopsis thaliana [1] = test: Herbicide resistance of transgenic Arabidopsis thaliana seedlings on plate medium (root growth); format: in vivo; conditions: plate medium: 2,4-D 0.3 μmol; 2,4-DB sodium 0.7 μmol; MCPA 0.1 μmol
Description: Expression in Arabidopsis thaliana was regulated by its AtUbi10 Arabidopsis thaliana ubiquitin promoter and the MAS (mannopine synthase) terminator. Hygromycin resistance gene (HygR=hpt) served as the selection marker.
Preparation of Agrobacterium infection solution: An activated Agrobacterium (GV3101) monoclone was picked and inoculated in 30 ml YEP liquid medium [yeast powder 10 g/L, tryptone 10 g/L, NaCl 5 g/L, 25 mg/L Rifampicin and 50 mg/L Kanamycin], shaking-cultured at 200 rmp/min, 28° C. overnight until the OD600 was about 1.0-1.5, then centrifuged at 6000 rmp/min for 10 min to collect the bacteria, and the supernatant was discarded. Arabidopsis thaliana infection solution (sucrose 50 g/L, Silwet L-77 300 μL/L, no need to adjust pH) was used to resuspend the cells to OD600=0.8 for later use.
Genetic transformation of Arabidopsis thaliana by flower dipping: Before transformation of Arabidopsis thaliana plants, attentions were paid to whether the plants were growing well, the inflorescences were abundant, and no stress response occurred. The first transformation was performed when plants were about 20 cm high. Plants could be properly watered if the soil was dry. The grown siliques were cut off with scissors the day before transformation. The inflorescences of the plants to be transformed were soaked in the above-mentioned Agrobacterium solution for 30 seconds to 1 minute, which was stirred gently during the period. And a layer of liquid film should appear on the infiltrated plant. The transformed plants were cultured in a dark environment for 24 hours, and then taken out and grown in a normal light environment. A second transformation could be performed in the same way a week later. […]

Arabidopsis thaliana [2] = test: Spray testing of T2 generation transgenic Arabidopsis thaliana; format: in vivo; conditions: 100 g/ha foliage spray, 10 days after spraying
Excerpt: The T2 generation seedlings of four representative transformants, pQY2309, pQY2310, pQY2311 and pQY2313, were selected for further spray testing. Four lines were randomly selected from the T2 generation generated by transformation of each vector, and respectively foliage-sprayed with 2,4-D (100 g/ha), MCPA (100 g/ha) and 2,4-DB sodium (100 g/ha) when Arabidopsis thaliana seeds germinated, transplanted and the seedlings grew to 5-7 leaf. Non-transgenic wild-type Col-0 served as a negative control. The level of resistance was assessed 10 days after spraying.

## O=C(O)COc1ccc(Cl)cc1Cl [2,4-D, (2,4-dichlorophenoxy)acetic acid, reference compound]
Arabidopsis thaliana [1]
  Effect of the herbicide on seminal roots of wild-type Col-0: uncapable of growing roots; also recorded: seminal roots are inhibited; also recorded: seminal roots are not able to grow
Arabidopsis thaliana [2]
  Effect of the herbicide spray on wild-type Col-0: all or almost all non-transgenic wild-type Arabidopsis thaliana died; also recorded: all die
